Where two headings read alike, the source gives them in different places.
Legend:
HepG2 = assay: MTT assay, HepG2 cells; format: cell-based, human; conditions: read-out: Half maximal inhibitory concentration (IC50) values, HepG2
Excerpt: (§1) The human hepatocellular carcinoma cell line (HepG2), human hepatocellular carcinoma cell line (Bel-7402), human cervical cancer cell line (Hela), human breast adenocarcinoma cell line (MCF-7) and Madin-Darby canine kidney cell line (MDCK) were obtained from the Chinese Academy of Medical Sciences and Peking Union Medical College. Cultures were maintained as monolayer in RPMI-1640/DMEM supplemented with 10% (v/v) fetal bovine serum (FBS) and 1% (v/v) penicillin/streptomycin (Thermo Technologies, New York, NY, United States) under a humidified atmosphere containing 5% CO2 at 37°C. The BoA derivatives and positive control drugs (BoA and DDP) under study were dissolved in DMSO (Sigma, St. Louis, MO, United States) and added at required concentrations to the cell culture. Cells incubated without the preparations served as the control.
(§2) The antitumor activity was assessed by MTT assay, as previously reported ([Fang et al., 2018]). Each tested compound and positive control drugs were dissolved in DMSO and diluted with the medium to the test concentrations, and the final concentration of DMSO in the culture medium was controlled at less than 0.5% (v/v). Briefly, cells were cultured at 37°C and dispersed in replicates in 96-well plates with HepG2, Bel-7402, HeLa, MCF-7 and MDCK for 24 h. Fresh medium along with compounds (BoAA-BoAE, BoA2A-BoA2G, BoA3A-BoA3G, BoA4A-BoA4G) at different concentrations was then added to individual wells and incubated for 72 h, with BoA and DDP as the positive control. Experiments on FXR expression were separated into three groups: Control (PBS), BoA2C (8 μM), and BoA2C (8 μM) + DY268 (10 μM) ([Giordano et al., 2016]), with three repeating wells in each. In separate wells, BoA2C and DY268 were introduced and cultured for 72 h. After 72 h, the cell was incubated with MTT solution (0.5 mg/ml) for an additional 4 h at 37°C. The produced formazan crystals were solubilized with DMSO, and the optical density of solution was measured at 570 nm using a plate reader (BIORAD 550 spectrophotometer, Bio-rad Life Science Development Ltd., Beijing, China). Wells without drugs were used to be blanks. The IC50 values were defined as the concentration of compounds that produced a 50% proliferation inhibition of surviving cells and calculated using the Graph Pad Prism 5. The inhibitory rate was calculated in the following Equation 1, where OD is the optical density: % inhibition=[1−(OD Sample group−OD Blank group)/(OD Control group−OD Blank group)]×100% (1)

Bel-7402 = assay: MTT assay, Bel-7402 cells; format: cell-based, human; conditions: read-out: Half maximal inhibitory concentration (IC50) values, Bel-7402
Excerpt: as §1, §2

Hela = assay: MTT assay, Hela cells; format: cell-based, human; conditions: 72 h incubation, read-out: Half maximal inhibitory concentration (IC50) values, Hela
Excerpt: as §1, §2

MCF-7 = assay: MTT assay, MCF-7 cells; format: cell-based, human; conditions: read-out: Half maximal inhibitory concentration (IC50) values, MCF-7
Excerpt: as §1, §2

MDCK = assay: MTT assay, MDCK normal cell line; format: cell-based, canine; conditions: 72 h incubation, normal cell line, read-out: Half maximal inhibitory concentration (IC50) values, MDCK
Excerpt: as §1, §2

[1] = Homo sapiens, HepG2, 72 h incubation
[2] = Homo sapiens, Bel-7402, 72 h incubation
[3] = Homo sapiens, MCF7, 72 h incubation

SMILES | IC50 (HepG2; [1]) | IC50 (Bel-7402; [2]) | IC50 (Hela; Homo sapiens, HeLa) | IC50 (MCF-7; [3]) | IC50 (MDCK; Canis lupus familiaris, MDCK) | melting point | IC50 (HepG2; 72 h incubation) | IC50 (Bel-7402; 72 h incubation) | IC50 (Hela) | IC50 (MCF-7; 72 h incubation) | IC50 (MDCK)
C=C(C)[C@@H]1CC[C@]2(C(=O)OCCCCOC(=O)c3nc(C)c(C)nc3C)CC[C@]3(C)[C@H](CC[C@@H]4[C@@]5(C)CCC(=O)C(C)(C)[C@@H]5CC[C@]43C)[C@@H]12 [BoA4E, (3,5,6-Trimethylpyrazin-2-acyloxy)-butyl-3-oxolup-20(29)-en-28-oate] | > 30 µM | > 30 µM | > 30 µM | > 30 µM | > 30 µM | 124 to 126 °C |  |  |  |  | 
C=C(C)[C@@H]1CC[C@]2(C(=O)OCCCOC(=O)c3cncc(C)n3)CC[C@]3(C)[C@H](CC[C@@H]4[C@@]5(C)CCC(=O)C(C)(C)[C@@H]5CC[C@]43C)[C@@H]12 [BoA3D, (6-Methylpyrazin-2-acyloxy)-propyl-3-oxolup-20(29)-en-28-oate] | 8.65 ± 0.6 µM | 6.42 ± 0.66 µM | 9.5 ± 0.28 µM | 5.6 ± 0.25 µM | 17 ± 3.01 µM | 59 to 60 °C |  |  |  |  | 
C=C(C)[C@@H]1CC[C@]2(C(=O)OCCOC(=O)c3nccnc3C)CC[C@]3(C)[C@H](CC[C@@H]4[C@@]5(C)CCC(=O)C(C)(C)[C@@H]5CC[C@]43C)[C@@H]12 [BoA2B, (3-Methylpyrazin-2-acyloxy)-ethyl-3-oxolup-20(29)-en-28-oate] | 13.4 ± 1.82 µM | 10.1 ± 1.4 µM | 15.5 ± 0.81 µM | > 30 µM | > 30 µM | 60 to 62 °C |  |  |  |  | 
C=C(C)[C@@H]1CC[C@]2(C(=O)OCCCCOC(=O)c3cnc(C)cn3)CC[C@]3(C)[C@H](CC[C@@H]4[C@@]5(C)CCC(=O)C(C)(C)[C@@H]5CC[C@]43C)[C@@H]12 [BoA4C, (5-Methylpyrazin-2-acyloxy)-butyl-3-oxolup-20(29)-en-28-oate] | 22.2 ± 1.76 µM | 5.53 ± 0.46 µM | 17.9 ± 0.45 µM | 9.88 ± 1.49 µM | > 30 µM |  |  |  |  |  | 
C=C(C)[C@@H]1CC[C@]2(C(=O)OCCCOC(=O)c3ccncn3)CC[C@]3(C)[C@H](CC[C@@H]4[C@@]5(C)CCC(=O)C(C)(C)[C@@H]5CC[C@]43C)[C@@H]12 [BoA3F] | > 30 µM | 22.3 ± 5.85 µM | 21.1 ± 6.66 µM | > 30 µM | 17.9 ± 0.82 µM | 50 to 52 °C |  |  |  |  | 
C=C(C)[C@@H]1CC[C@]2(C(=O)OCCCOC(=O)c3cnccn3)CC[C@]3(C)[C@H](CC[C@@H]4[C@@]5(C)CCC(=O)C(C)(C)[C@@H]5CC[C@]43C)[C@@H]12 [BoA3A, (Pyrazin-2-acyloxy)-propyl-3-oxolup-20(29)-en-28-oate] | 4.82 ± 0.3 µM | 6.09 ± 0.12 µM | 20.4 ± 0.56 µM | 6.85 ± 1.82 µM | > 30 µM | 74 to 76 °C |  |  |  |  | 
C=C(C)[C@@H]1CC[C@]2(C(=O)OCCCCOC(=O)c3ccncn3)CC[C@]3(C)[C@H](CC[C@@H]4[C@@]5(C)CCC(=O)C(C)(C)[C@@H]5CC[C@]43C)[C@@H]12 [BoA4F] | 30.2 ± 1.51 µM | > 30 µM | 25.9 ± 0.57 µM | 24.5 ± 5.17 µM | 27.22 ± 0.25 µM |  |  |  |  |  | 
C=C(C)[C@@H]1CC[C@]2(C(=O)OCCCOC(=O)c3nccnc3C)CC[C@]3(C)[C@H](CC[C@@H]4[C@@]5(C)CCC(=O)C(C)(C)[C@@H]5CC[C@]43C)[C@@H]12 [BoA3B, (3-Methylpyrazin-2-acyloxy)-propyl-3-oxolup-20(29)-en-28-oate] | 13.2 ± 1.2 µM | 14.2 ± 2.1 µM | 15.7 ± 2.15 µM | 27.9 ± 1.06 µM | > 30 µM | 54 to 55 °C |  |  |  |  | 
C=C(C)[C@@H]1CC[C@]2(C(=O)OCc3cncc(C)n3)CC[C@]3(C)[C@H](CC[C@@H]4[C@@]5(C)CCC(=O)C(C)(C)[C@@H]5CC[C@]43C)[C@@H]12 [BoAD, (6-Methylpyrazin-2-yl)-methyl-3-oxolup-20(29)-en-28-oate] | 5.17 ± 1.33 µM | 7.51 ± 1.4 µM | 10.7 ± 0.32 µM | 8.24 ± 0.87 µM | > 30 µM | 119 to 121 °C |  |  |  |  | 
C=C(C)[C@@H]1CC[C@]2(C(=O)OCCCOC(=O)c3ccnnc3)CC[C@]3(C)[C@H](CC[C@@H]4[C@@]5(C)CCC(=O)C(C)(C)[C@@H]5CC[C@]43C)[C@@H]12 [BoA3G] | > 30 µM | 25.2 ± 2.44 µM | 4 ± 0.32 µM | 13.4 ± 0.51 µM | 18.5 ± 0.42 µM | 68 to 71 °C |  |  |  |  | 
C=C(C)[C@@H]1CC[C@]2(C(=O)OCCOC(=O)c3ccncn3)CC[C@]3(C)[C@H](CC[C@@H]4[C@@]5(C)CCC(=O)C(C)(C)[C@@H]5CC[C@]43C)[C@@H]12 [BoA2F] | > 30 µM | > 30 µM | 15.2 ± 1.07 µM | 29.7 ± 0.37 µM | 12.5 ± 1.22 µM | 72 to 74 °C |  |  |  |  | 
C=C(C)[C@@H]1CC[C@]2(C(=O)OCCCCOC(=O)c3nccnc3C)CC[C@]3(C)[C@H](CC[C@@H]4[C@@]5(C)CCC(=O)C(C)(C)[C@@H]5CC[C@]43C)[C@@H]12 [BoA4B, (3-Methylpyrazin-2-acyloxy)-butyl-3-oxolup-20(29)-en-28-oate] | 21.8 ± 2.46 µM | 3.92 ± 1.1 µM | 11.5 ± 0.93 µM | > 30 µM | > 30 µM | 54 to 55 °C |  |  |  |  | 
C=C(C)[C@@H]1CC[C@]2(C(=O)OCc3cnccn3)CC[C@]3(C)[C@H](CC[C@@H]4[C@@]5(C)CCC(=O)C(C)(C)[C@@H]5CC[C@]43C)[C@@H]12 [BoAA, Pyrazin-2-ylmethyl-3-oxolup-20(29)-en-28-oate] | 13.5 ± 1.8 µM | 8.16 ± 2.08 µM | 18.3 ± 1.63 µM | 15.7 ± 0.55 µM | > 30 µM |  |  |  |  |  | 
C=C(C)[C@@H]1CC[C@]2(C(=O)OCCOC(=O)c3cnccn3)CC[C@]3(C)[C@H](CC[C@@H]4[C@@]5(C)CCC(=O)C(C)(C)[C@@H]5CC[C@]43C)[C@@H]12 [BoA2A, (Pyrazin-2-acyloxy)-ethyl-3-oxolup-20(29)-en-28-oate] | 13.7 ± 0.25 µM | 8.76 ± 0.84 µM | 25 ± 0.97 µM | 9.86 ± 0.36 µM | > 30 µM | 85 to 87 °C |  |  |  |  | 
C=C(C)[C@@H]1CC[C@]2(C(=O)OCCCOC(=O)c3cnc(C)cn3)CC[C@]3(C)[C@H](CC[C@@H]4[C@@]5(C)CCC(=O)C(C)(C)[C@@H]5CC[C@]43C)[C@@H]12 [BoA3C, (5-Methylpyrazin-2-acyloxy)-propyl-3-oxolup-20(29)-en-28-oate] | > 30 µM | 9.37 ± 1.31 µM | 30 ± 2.65 µM | 10 ± 0.19 µM | > 30 µM | 57 to 58 °C |  |  |  |  | 
C=C(C)[C@@H]1CC[C@]2(C(=O)OCCCCOC(=O)c3cncc(C)n3)CC[C@]3(C)[C@H](CC[C@@H]4[C@@]5(C)CCC(=O)C(C)(C)[C@@H]5CC[C@]43C)[C@@H]12 [BoA4D, (6-Methylpyrazin-2-acyloxy)-butyl-3-oxolup-20(29)-en-28-oate] | > 30 µM | 16.3 ± 0.9 µM | 15.7 ± 2.15 µM | > 30 µM | > 30 µM |  |  |  |  |  | 
N.N.[Cl][Pt][Cl] [DDP, cisplatin, reference compound] |  |  |  |  |  |  | 5.23 ± 1.03 µM | 8.86 ± 1.32 µM | 9.84 ± 2.54 µM | 6.98 ± 0.32 µM | 13.7 ± 1.45 µM
C=C(C)[C@@H]1CC[C@]2(C(=O)O)CC[C@]3(C)[C@H](CC[C@@H]4[C@@]5(C)CCC(=O)C(C)(C)[C@@H]5CC[C@]43C)[C@@H]12 [BoA, betulonic acid] | > 30 µM | > 30 µM | 27 ± 1.06 µM | > 30 µM | > 30 µM |  |  |  |  |  | 
C=C(C)[C@@H]1CC[C@]2(C(=O)OCCCCOC(=O)c3ccnnc3)CC[C@]3(C)[C@H](CC[C@@H]4[C@@]5(C)CCC(=O)C(C)(C)[C@@H]5CC[C@]43C)[C@@H]12 [BoA4G, (Pyridazin-2-acyloxy)-butyl-3-oxolup-20(29)-en-28-oate] | 29.27 ± 0.22 µM | 19.4 ± 1.2 µM | 7.46 ± 1.99 µM | 12.8 ± 0.15 µM | 16.9 ± 1.03 µM |  |  |  |  |  | 

From publication PMC9486541, “Design, synthesis and cytotoxic evaluation of novel betulonic acid-diazine derivatives as potential antitumor agents” (Frontiers in Chemistry, 2022)
